US20240398771A1, “TREATMENT OF SCLERODERMA AND RAYNAUD'S SYNDROME” (Aisa Pharma, Inc., priority 2023, published 2024)

Experiments:
Format in all cases: in vivo, human
participants with SSc-RP [1] = assay: SHAQ Standard Disability Index; conditions: Example 4, mITT Part A
Text: The standard, validated, patient reported outcome measures tool for SSc patients, the SHAQ, will be collected at the time points specified in the study schedules (FIG. 2 and FIG. 3A and/or FIG. 3B). To assess the participant's quality of life. The SHAQ includes a Raynaud's VAS that will also be reported separately.
The standard, validated, patient reported outcome measures tool for SSc patients, the Scleroderma Health Assessment Questionnaire (SHAQ), will be used to assess the participant qualify of life. Details are attached in the Appendix. The participant quality of life will be scored, and a disability index calculated for each questionnaire completed by the patient at Screening and each in-clinic visit. The absolute change in participant quality of life from baseline to the end of each dosing period will be calculated similar to frequency data as before.
The SHAQ is used to calculate a Disability Index to assess the participant qualify of life. The eight categories assessed by the Disability Index are 1) dressing and grooming, 2) arising, 3) eating, 4) walking, 5) hygiene, 6) reach, 7) grip, and 8) common daily activities. For each of these categories, patients report the amount of difficulty they have in performing two or three specific activities. […]

participants with SSc-RP [2] = assay: Average severity (0-10) of weekly symptomatic RP attacks; conditions: Example 3
Text: (§1) The relevant metrics measured by this tool daily are: • Study medication • SSc-RP symptoms (Reporting an attack including duration of attack) • Severity of the attack considering all symptoms of the attack e.g. tingling, numbness, pain, color changes (VAS 0-10 cm scale) • Participant's location at the time of the attack (inside home/outside home) • Selecting symptoms experienced during the attack (tingling, numbness, pain, color changes, other) • Pain rating during the attack (11-point Likert scale) • The RCS based on how much difficulty participants had with Raynaud's today, how many attacks the participant had, and how long they lasted. Participants will also be asked to consider how much pain, numbness, or other symptoms the Raynaud's caused in fingers (including painful sores), and how much the Raynaud's alone affected the use of hands today (VAS 0-10 cm scale).
The absolute change in average severity of weekly RP attacks (VAS 0-10 cm scale) from baseline to the end of each Dosing Period was and will be a secondary outcome variable. The sponsor-developed participant-informed diary will be used to record data. Average severity of weekly RP attacks is defined as the total severity scores of RP attacks divided by total number of RP attacks within the last 7 days of each dosing period. […] The variable will be calculated similar to frequency data as before.

participants with SSc-RP [3] = assay: Pain score (11-point Likert scale) recorded during weekly RP attacks; conditions: Tadalafil 5 mg (n = 4); Raynaud's pain, Table G
Text: as §1
The absolute change in highest pain score (11-point Likert scale) of weekly RP attacks from baseline to the end of each dosing period will be a secondary outcome variable. […] The variable will be calculated similar to frequency data as before.
The absolute change in average pain score (11-point Likert scale) of weekly RP attacks from baseline to the end of each Dosing Period will be a secondary outcome variable. […] The variable will be calculated similar to frequency data as before.

| Compound | patient-reported SSc disease disability compared to placebo (participants with SSc-RP [1]) | severity of attacks as reported by patients, comparison in words (participants with SSc-RP [2]) | Baseline Average Pain Score [Mean (SD)] (participants with SSc-RP [3]) |
| --- | --- | --- | --- |
| COCCOC(=O)C1=C(C)NC(C)=C(C(=O)OC/C=C/c2ccccc2)C1c1cccc([N+](=O)[O-])c1 (stereo not drawn) [Cilnidipine, 1,4-dihydro-2,6-dimethyl,4-(3-nitrophenyl)-3,5-pyridinedicarboxylic acid 2-methoxyethyl (2 E)-3-phenyl-2-propenyl ester] | may reduce | 20 mg reducing severity more than 10 mg | – |
| CN1CC(=O)N2[C@H](c3ccc4c(c3)OCO4)c3[nH]c4ccccc4c3C[C@@H]2C1=O [Tadalafil] | – | – | 5.47 (3.586) |
